For one assay, the target named is PARP1 (Homo sapiens (Human), UniProt P09874). Briefly: PARP fluorescence anisotropy binding assay, PARP1.
Another assay deals with PARP2 (Homo sapiens (Human), UniProt Q9UGN5). Briefly: PARP fluorescence anisotropy binding assay, PARP2. As to the method: Recombinant full length PARP2 protein was diluted to 6 nM with 50 mM Tris pH 8, 0.001% Triton X100, 10 mM MgCl2, 150 mM NaCl and incubated for four hours with an equivalent volume of 2 nM fluorescent probe diluted with 50 mM Tris pH 8, 0.001% Triton X100, 10 mM MgCl2, 150 mM NaCl. The final DMSO concentration of the probe was kept below 1% (v/v).
Fluorescence anisotropy of the probe when bound to the proteins was measured using a BMG Pherastar FSX® in the presence of test compounds or solvent control and the effect on anisotropy determined. % inhibition values for different test compound concentrations were calculated and fitted to a four parameter logistic plot in order to determine the IC50 value.
In general terms: Fluorescence polarisation rises when a labelled molecule tumbles more slowly, as on binding a larger partner.

Data on 28 molecules can be found in patent US20250082630A1, “METHODS OF TREATING BRAIN TUMOURS AND NEUROBLASTOMAS” (AstraZeneca AB, priority 2021, published 2025).

SMILES strings stand for the structures.

Chain of PARP1 (P09874 whole entry): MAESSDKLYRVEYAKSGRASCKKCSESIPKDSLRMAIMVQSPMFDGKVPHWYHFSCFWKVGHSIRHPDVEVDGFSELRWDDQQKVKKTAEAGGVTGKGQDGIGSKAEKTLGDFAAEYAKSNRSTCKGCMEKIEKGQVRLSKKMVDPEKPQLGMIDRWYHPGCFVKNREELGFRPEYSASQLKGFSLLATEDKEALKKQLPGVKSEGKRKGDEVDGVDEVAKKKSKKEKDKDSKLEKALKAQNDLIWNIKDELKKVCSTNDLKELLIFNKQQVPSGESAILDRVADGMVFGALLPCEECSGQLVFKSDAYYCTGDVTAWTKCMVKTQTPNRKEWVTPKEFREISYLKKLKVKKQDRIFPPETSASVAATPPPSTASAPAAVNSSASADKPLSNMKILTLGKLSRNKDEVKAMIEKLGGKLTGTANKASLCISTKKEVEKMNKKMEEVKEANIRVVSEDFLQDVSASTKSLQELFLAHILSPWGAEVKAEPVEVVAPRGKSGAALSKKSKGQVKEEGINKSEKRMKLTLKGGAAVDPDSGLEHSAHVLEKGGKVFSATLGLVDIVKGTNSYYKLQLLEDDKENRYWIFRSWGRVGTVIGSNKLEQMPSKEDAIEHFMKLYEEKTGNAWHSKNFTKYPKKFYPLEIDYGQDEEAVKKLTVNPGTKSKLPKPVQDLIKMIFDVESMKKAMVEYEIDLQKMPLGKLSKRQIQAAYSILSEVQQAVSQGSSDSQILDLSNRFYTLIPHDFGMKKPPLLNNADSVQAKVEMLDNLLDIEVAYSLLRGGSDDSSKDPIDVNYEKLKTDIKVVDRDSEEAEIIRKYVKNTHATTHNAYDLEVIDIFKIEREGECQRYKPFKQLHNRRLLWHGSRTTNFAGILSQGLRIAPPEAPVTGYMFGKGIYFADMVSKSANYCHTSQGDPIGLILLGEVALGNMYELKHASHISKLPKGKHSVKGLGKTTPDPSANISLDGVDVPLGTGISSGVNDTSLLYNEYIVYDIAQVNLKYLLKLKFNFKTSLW
Chain of PARP2 (Q9UGN5 whole entry): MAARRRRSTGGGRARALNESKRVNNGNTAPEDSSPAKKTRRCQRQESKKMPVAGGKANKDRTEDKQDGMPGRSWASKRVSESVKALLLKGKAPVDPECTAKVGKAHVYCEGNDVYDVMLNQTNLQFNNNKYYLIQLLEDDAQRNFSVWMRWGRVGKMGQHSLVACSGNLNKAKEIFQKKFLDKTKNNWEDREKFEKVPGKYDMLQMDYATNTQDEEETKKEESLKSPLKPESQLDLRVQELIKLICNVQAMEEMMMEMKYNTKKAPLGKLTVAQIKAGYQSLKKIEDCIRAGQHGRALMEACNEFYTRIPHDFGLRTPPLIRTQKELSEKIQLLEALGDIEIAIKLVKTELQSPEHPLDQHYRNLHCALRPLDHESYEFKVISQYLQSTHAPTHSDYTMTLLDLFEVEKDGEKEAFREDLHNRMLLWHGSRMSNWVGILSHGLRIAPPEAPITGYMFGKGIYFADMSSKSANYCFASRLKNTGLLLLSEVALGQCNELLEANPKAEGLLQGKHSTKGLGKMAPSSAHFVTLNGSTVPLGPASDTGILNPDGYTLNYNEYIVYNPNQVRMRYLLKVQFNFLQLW
Description for PARP1: Recombinant full length 6HIS tagged PARP1 protein was diluted to 6 nM with 50 mM Tris pH 8, 0.001% Triton X100, 10 mM MgCl2, 150 mM NaCl and incubated for four hours with an equivalent volume of 2 nM fluorescent probe diluted with 50 mM Tris pH 8, 0.001% Triton X100, 10 mM MgCl2, 150 mM NaCl. The final DMSO concentration of the probe was kept below 1% (v/v).
Fluorescence anisotropy of the probe when bound to the proteins was measured using a BMG Pherastar FSX® in the presence of test compounds or solvent control and the effect on anisotropy determined. % inhibition values for different test compound concentrations were calculated and fitted to a four parameter logistic plot in order to determine the IC50 value. Where necessary, the compound K, can be determined from the IC50 value using a Munson Rodbard equation defined in Anal Biochem. 1980 Sep.

Turning to `CNC(=O)c1ccc(N2CCN(Cc3ccc4nc(C)c(=O)[nH]c4c3C)CC2)cn1` [Example 2, 5-[4-[(2,5-dimethyl-3-oxo-4H-quinoxalin-6-yl)methyl]piperazin-1-yl]-N-methyl-pyridine-2-carboxamide], the figures for the half-inhibitory concentration (IC50) on PARP1 and on PARP2 were 11 nM and 15000 nM, respectively.
In the same order, the values of `Cc1nc2ccc(CN3CCN(c4ccc(C(N)=O)nc4F)CC3)c(C)c2[nH]c1=O` [Example 5, 5-[4-[(2,5-dimethyl-3-oxo-4H-quinoxalin-6-yl)methyl]piperazin-1-yl]-6-fluoro-pyridine-2-carboxamide] are 5 nM and greater than 63000 nM.
Taken in the same sequence, the figures for `Cc1nc(C(N)=O)ccc1N1CCN(Cc2ccc3nc(C)c(=O)[nH]c3c2F)CC1` [Example 6, 5-[4-[(5-fluoro-2-methyl-3-oxo-4H-quinoxalin-6-yl)methyl]piperazin-1-yl]-6-methyl-pyridine-2-carboxamide] were 4 nM and greater than 100000 nM.
`Cc1nc(C(N)=O)ccc1N1CCN(Cc2ccc3nc(C)c(=O)[nH]c3c2C)CC1` [Example 7, 5-[4-[(2,5-dimethyl-3-oxo-4H-quinoxalin-6-yl)methyl]piperazin-1-yl]-6-methyl-pyridine-2-carboxamide]: the half-inhibitory concentration (IC50) – broadly, the concentration that gives 50% inhibition – on PARP1 was 6 nM; at PARP2 it was 58000 nM.
At PARP1, `CCc1nc2ccc(CN3CCN(c4ccc(C(=O)NC)nc4Cl)CC3)c(Cl)c2[nH]c1=O` [Example 8, 6-chloro-5-[4-[(5-chloro-2-ethyl-3-oxo-4H-quinoxalin-6-yl)methyl]piperazin-1-yl]-N-methyl-pyridine-2-carboxamide] displayed an IC50 of 4 nM.
Still for that read-out and setting: the value for `CCc1nc2ccc(CN3CCN(c4ccc(C(=O)NC)nc4)CC3)c(Cl)c2[nH]c1=O` [Example 10, 5-[4-[(5-chloro-2-ethyl-3-oxo-4H-quinoxalin-6-yl)methyl]piperazin-1-yl]-N-methyl-pyridine-2-carboxamide] was 13 nM; that for `CCc1nc2ccc(CN3CCN(c4ccc(C(=O)NC)nc4C)CC3)c(Cl)c2[nH]c1=O` [Example 11, 5-[4-[(5-chloro-2-ethyl-3-oxo-4H-quinoxalin-6-yl)methyl]piperazin-1-yl]-N,6-dimethyl-pyridine-2-carboxamide] was 3 nM; that for `CNC(=O)c1ccc(N2CCN(Cc3ccc4nc(C)c(=O)[nH]c4c3Cl)CC2)cn1` [Example 16, 5-[4-[(5-chloro-2-methyl-3-oxo-4H-quinoxalin-6-yl)methyl]piperazin-1-yl]-N-methyl-pyridine-2-carboxamide] was 10 nM.
Regarding `CNC(=O)c1ccc(N2CCN(Cc3ccc4nc(C)c(=O)[nH]c4c3Cl)CC2)c(F)n1` [Example 17, 5-[4-[(5-chloro-2-methyl-3-oxo-4H-quinoxalin-6-yl)methyl]piperazin-1-yl]-6-fluoro-N-methyl-pyridine-2-carboxamide], the half-inhibitory concentration (IC50) at PARP1 stood at 6 nM.
For `Cc1nc2ccc(CN3CCN(c4ccc(C(N)=O)nc4F)CC3)c(F)c2[nH]c1=O` [Example 22, 6-fluoro-5-[4-[(5-fluoro-2-methyl-3-oxo-4H-quinoxalin-6-yl)methyl]piperazin-1-yl]pyridine-2-carboxamide], the results for the concentration for half-maximal inhibition (IC50) on PARP1 and at PARP2 were 6 nM and 87000 nM, respectively.
Turning to `CCc1nc2ccc(CN3CCN(c4ccc(C(N)=O)nc4)CC3)c(F)c2[nH]c1=O` [Example 25, 5-[4-[(2-ethyl-5-fluoro-3-oxo-4H-quinoxalin-6-yl)methyl]piperazin-1-yl]pyridine-2-carboxamide], the IC50 at PARP1 was 5 nM; at PARP2, greater than 100000 nM.
With `CCc1nc2ccc(CN3CCN(c4ccc(C(N)=O)nc4C)CC3)c(F)c2[nH]c1=O` [Example 26, 5-[4-[(2-ethyl-5-fluoro-3-oxo-4H-quinoxalin-6-yl)methyl]piperazin-1-yl]-6-methyl-pyridine-2-carboxamide], the IC50 is 5 nM on PARP1 and 88000 nM on PARP2.
As to `CNC(=O)c1ccc(N2CCN(Cc3ccc4ncc(=O)[nH]c4c3F)CC2)cn1` [Example 33, 5-[4-[(5-fluoro-3-oxo-4H-quinoxalin-6-yl)methyl]piperazin-1-yl]-N-methyl-pyridine-2-carboxamide], the IC50 on PARP1 is 167 nM; at PARP2, greater than 100000 nM.
Consider `CNC(=O)c1ccc(N2CCN(Cc3ccc4ncc(=O)[nH]c4c3F)CC2)c(C)n1` [Example 35, 5-[4-[(5-fluoro-3-oxo-4H-quinoxalin-6-yl)methyl]piperazin-1-yl]-N,6-dimethyl-pyridine-2-carboxamide], for which the 50% inhibitory concentration (IC50) is 30 nM at PARP1 and greater than 100000 nM at PARP2.
In the same order, the values of `CNC(=O)c1ccc(N2CCN(Cc3ccc4ncc(=O)[nH]c4c3F)CC2)c(F)n1` [Example 36, 6-fluoro-5-[4-[(5-fluoro-3-oxo-4H-quinoxalin-6-yl)methyl]piperazin-1-yl]-N-methyl-pyridine-2-carboxamide] are 22 nM and greater than 100000 nM.
Taken in the same sequence, the figures for `CCc1nc2ccc(CN3CCN(c4ccc(C(=O)NC)nc4C)CC3)c(C)c2[nH]c1=O` [Example 42, 5-[4-[(2-ethyl-5-methyl-3-oxo-4H-quinoxalin-6-yl)methyl]piperazin-1-yl]-N,6-dimethyl-pyridine-2-carboxamide] were 5 nM and greater than 88000 nM.
Taken in the same sequence, the figures for `CCc1nc2ccc(CN3CCN(c4ccc(C(=O)NC)nc4F)CC3)c(C)c2[nH]c1=O` [Example 43, 5-[4-[(2-ethyl-5-methyl-3-oxo-4H-quinoxalin-6-yl)methyl]piperazin-1-yl]-6-fluoro-N-methyl-pyridine-2-carboxamide] were 5 nM and greater than 100000 nM.
In the case of `CCc1nc2ccc(CN3CCN(c4ccc(C(=O)NC)nc4)CC3)c(C)c2[nH]c1=O` [Example 44, 5-[4-[(2-ethyl-5-methyl-3-oxo-4H-quinoxalin-6-yl)methyl]piperazin-1-yl]-N-methyl-pyridine-2-carboxamide], the IC50 on PARP1 is 128 nM; at PARP2 it was greater than 100000 nM.
`CCNC(=O)c1ccc(N2CCN(Cc3ccc4nc(C)c(=O)[nH]c4c3F)CC2)c(C)n1` [Example 46, N-ethyl-5-[4-[(5-fluoro-2-methyl-3-oxo-4H-quinoxalin-6-yl)methyl]piperazin-1-yl]-6-methyl-pyridine-2-carboxamide]: the IC50 was 10 nM on PARP1 and greater than 100000 nM on PARP2.
With `CNC(=O)c1ccc(N2CCN(Cc3ccc4nc(C(F)(F)F)c(=O)[nH]c4c3F)CC2)cn1` [Example 50, 5-[4-[[5-fluoro-3-oxo-2-(trifluoromethyl)-4H-quinoxalin-6-yl]methyl]piperazin-1-yl]-N-methyl-pyridine-2-carboxamide], the concentration for half-maximal inhibition (IC50) at PARP1 was found to be 60 nM; at PARP2, 35000 nM.
In the same order, the values of `CNC(=O)c1ccc(N2CCN(Cc3ccc4nc(C(C)C)c(=O)[nH]c4c3F)CC2)c(F)n1` [Example 51, 6-fluoro-5-[4-[(5-fluoro-2-isopropyl-3-oxo-4H-quinoxalin-6-yl)methyl]piperazin-1-yl]-N-methyl-pyridine-2-carboxamide] are 6 nM and 1200 nM.
Regarding `CNC(=O)c1ccc(N2CCN(Cc3ccc4nc(C(C)C)c(=O)[nH]c4c3F)CC2)c(C)n1` [Example 52, 5-[4-[(5-fluoro-2-isopropyl-3-oxo-4H-quinoxalin-6-yl)methyl]piperazin-1-yl]-N,6-dimethyl-pyridine-2-carboxamide], the half-inhibitory concentration (IC50) stood at 85 nM at PARP1 and 3800 nM at PARP2.
Taken in the same sequence, the figures for `CNC(=O)c1ccc(N2CCN(Cc3ccc4nc(C(C)C)c(=O)[nH]c4c3F)CC2)cn1` [Example 53, 5-[4-[(5-fluoro-2-isopropyl-3-oxo-4H-quinoxalin-6-yl)methyl]piperazin-1-yl]-N-methyl-pyridine-2-carboxamide] were 26 nM and greater than 100000 nM.
As to `CNC(=O)c1ccc(N2CCN(Cc3ccc4nc(C5CC5)c(=O)[nH]c4c3F)CC2)c(F)n1` [Example 54, 5-[4-[(2-cyclopropyl-5-fluoro-3-oxo-4H-quinoxalin-6-yl)methyl]piperazin-1-yl]-6-fluoro-N-methyl-pyridine-2-carboxamide], the IC50 at PARP1 was 111 nM; at PARP2, greater than 100000 nM.
In the same order, the values of `CNC(=O)c1ccc(N2CCN(Cc3ccc4nc(C5CC5)c(=O)[nH]c4c3F)CC2)c(C)n1` [Example 55, 5-[4-[(2-cyclopropyl-5-fluoro-3-oxo-4H-quinoxalin-6-yl)methyl]piperazin-1-yl]-N,6-dimethyl-pyridine-2-carboxamide] are 5 nM and greater than 100000 nM.
Taken in the same sequence, the figures for `CNC(=O)c1ccc(N2CCN(Cc3ccc4nc(C5CC5)c(=O)[nH]c4c3F)CC2)cn1` [Example 56, 5-[4-[(2-cyclopropyl-5-fluoro-3-oxo-4H-quinoxalin-6-yl)methyl]piperazin-1-yl]-N-methyl-pyridine-2-carboxamide] were 8 nM and greater than 100000 nM.
Take `CNC(=O)c1ccc(N2CCN(Cc3ccc4nc(OC)c(=O)[nH]c4c3C)CC2)c(C)n1` [Example 57, 5-[4-[(2-methoxy-5-methyl-3-oxo-4H-quinoxalin-6-yl)methyl]piperazin-1-yl]-N,6-dimethyl-pyridine-2-carboxamide]: the figures for the half-maximal inhibitory concentration (IC50) at PARP1 and at PARP2 were 11 nM and greater than 100000 nM, respectively.
Turning to `CNC(=O)c1ccc(N2CCN(Cc3ccc4nc(OC)c(=O)[nH]c4c3C)CC2)c(C(F)F)n1` [Example 59, 6-(difluoromethyl)-5-[4-[(2-methoxy-5-methyl-3-oxo-4H-quinoxalin-6-yl)methyl]piperazin-1-yl]-N-methyl-pyridine-2-carboxamide], the IC50 on PARP1 worked out at 6 nM; on PARP2, 2100 nM.
